In the supplement of paper PMC10307832:

Key:
Test in all cases: relative viability (nuclei count vs DMSO), 5 days (fraction); higher = more cells survive
[1] = system: LU99A
Method in brief: (§1)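 Lung cancer cell lines in 1536-well plates were dosed by pin tool the day after seeding, either with one drug alone or with a fixed anchor-drug dose plus five library-drug doses (not always all listed) in √10 steps. After 5 days, cells were fixed and their nuclei stained in one step (final 0.05% Triton X-100, 1% formaldehyde, 1 ug/ml Hoechst), then counted on 4× images. Relative viability is the nuclei count in treated wells divided by that in vehicle wells. Values are medians of duplicate plates.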

[2] = system: EKVX
Method in brief: as §1

[3] = system: NCI-H650
Method in brief: as §1

[4] = system: NCI-H1355
Method in brief: as §1

[5] = system: NCI-H838
Method in brief: as §1

[6] = system: LC-2-ad
Method in brief: as §1

[7] = system: NCI-H1793
Method in brief: as §1

[8] = system: LCLC-97TM1
Method in brief: as §1

[9] = system: NCI-H460
Method in brief: as §1

[10] = system: NCI-H1650
Method in brief: as §1

[11] = system: PC-3 [JPC-3]
Method in brief: as §1

[12] = system: NCI-H1915
Method in brief: as §1

[13] = system: RERF-LC-KJ
Method in brief: as §1

[14] = system: NCI-H23
Method in brief: as §1

[15] = system: SW 1573
Method in brief: as §1

[16] = system: NCI-H520
Method in brief: as §1

[17] = system: NCI-H1993
Method in brief: as §1

[18] = system: NCI-H2347
Method in brief: as §1

[19] = system: NCI-H1666
Method in brief: as §1

[20] = system: LOU-NH91
Method in brief: as §1

[21] = system: BEN
Method in brief: as §1

[22] = system: A-427
Method in brief: as §1

O=c1[nH]c2ccccc2n1C1CCN(CCCC(c2ccc(F)cc2)c2ccc(F)cc2)CC1 [Pimozide] + Nc1ncn([C@H]2C[C@H](O)[C@@H](CO)O2)c(=O)n1 [Decitabine] (partner 2 µM)
relative viability ([1]; first compound 0.08 µM): 0.979
relative viability ([1]; first compound 0.8 µM): 0.97
relative viability ([1]; first compound 2.53 µM): 0.829
relative viability ([1]; first compound 8 µM): 0.847
relative viability ([2]; first compound 0.253 µM): 0.333
relative viability ([2]; first compound 0.8 µM): 0.341
relative viability ([2]; first compound 2.53 µM): 0.349
relative viability ([2]; first compound 8 µM): 0.364
relative viability ([3]; first compound 0.08 µM): 0.278
relative viability ([3]; first compound 0.253 µM): 0.33
relative viability ([3]; first compound 0.8 µM): 0.342
relative viability ([3]; first compound 2.53 µM): 0.321
relative viability ([3]; first compound 8 µM): 0.275
relative viability ([4]; first compound 0.08 µM): 0.345
relative viability ([4]; first compound 0.253 µM): 0.332
relative viability ([4]; first compound 0.8 µM): 0.339
relative viability ([4]; first compound 2.53 µM): 0.339
relative viability ([4]; first compound 8 µM): 0.337
relative viability ([5]; first compound 0.08 µM): 0.487
relative viability ([5]; first compound 0.253 µM): 0.395
relative viability ([5]; first compound 0.8 µM): 0.42
relative viability ([5]; first compound 2.53 µM): 0.43
relative viability ([5]; first compound 8 µM): 0.469
relative viability ([6]; first compound 0.08 µM): 0.776
relative viability ([6]; first compound 0.253 µM): 0.697
relative viability ([6]; first compound 0.8 µM): 0.854
relative viability ([6]; first compound 2.53 µM): 0.868
relative viability ([6]; first compound 8 µM): 0.837
relative viability ([7]; first compound 0.08 µM): 0.501
relative viability ([7]; first compound 0.253 µM): 0.489
relative viability ([7]; first compound 0.8 µM): 0.516
relative viability ([7]; first compound 2.53 µM): 0.556
relative viability ([7]; first compound 8 µM): 0.58
relative viability ([8]; first compound 0.08 µM): 0.229
relative viability ([8]; first compound 0.253 µM): 0.245
relative viability ([8]; first compound 0.8 µM): 0.183
relative viability ([8]; first compound 2.53 µM): 0.221
relative viability ([8]; first compound 8 µM): 0.228
relative viability ([9]; first compound 0.08 µM): 0.553
relative viability ([9]; first compound 0.253 µM): 0.494
relative viability ([9]; first compound 0.8 µM): 0.462
relative viability ([9]; first compound 2.53 µM): 0.521
relative viability ([9]; first compound 8 µM): 0.45
relative viability ([10]; first compound 0.08 µM): 0.287
relative viability ([10]; first compound 0.253 µM): 0.485
relative viability ([10]; first compound 0.8 µM): 0.315
relative viability ([10]; first compound 2.53 µM): 0.404
relative viability ([10]; first compound 8 µM): 0.405
relative viability ([11]; first compound 0.253 µM): 0.838
relative viability ([11]; first compound 0.8 µM): 0.823
relative viability ([11]; first compound 2.53 µM): 0.904
relative viability ([11]; first compound 8 µM): 0.854
relative viability ([12]; first compound 0.08 µM): 0.267
relative viability ([12]; first compound 0.253 µM): 0.248
relative viability ([12]; first compound 2.53 µM): 0.262
relative viability ([12]; first compound 8 µM): 0.262
relative viability ([13]; first compound 0.08 µM): 0.674
relative viability ([13]; first compound 0.253 µM): 0.562
relative viability ([13]; first compound 0.8 µM): 0.63
relative viability ([13]; first compound 2.53 µM): 0.401
relative viability ([13]; first compound 8 µM): 0.544
relative viability ([14]; first compound 0.08 µM): 0.304
relative viability ([14]; first compound 0.253 µM): 0.301
relative viability ([14]; first compound 0.8 µM): 0.294
relative viability ([14]; first compound 2.53 µM): 0.333
relative viability ([14]; first compound 8 µM): 0.325
relative viability ([15]; first compound 0.08 µM): 0.555
relative viability ([15]; first compound 0.253 µM): 0.52
relative viability ([15]; first compound 0.8 µM): 0.499
relative viability ([15]; first compound 2.53 µM): 0.371
relative viability ([15]; first compound 8 µM): 0.384
relative viability ([16]; first compound 0.08 µM): 0.455
relative viability ([16]; first compound 0.253 µM): 0.428
relative viability ([16]; first compound 0.8 µM): 0.453
relative viability ([16]; first compound 2.53 µM): 0.519
relative viability ([16]; first compound 8 µM): 0.613
relative viability ([17]; first compound 0.08 µM): 0.561
relative viability ([17]; first compound 0.253 µM): 0.56
relative viability ([17]; first compound 0.8 µM): 0.566
relative viability ([17]; first compound 2.53 µM): 0.556
relative viability ([17]; first compound 8 µM): 0.642
relative viability ([18]; first compound 0.08 µM): 0.651
relative viability ([18]; first compound 0.253 µM): 0.589
relative viability ([18]; first compound 0.8 µM): 0.574
relative viability ([18]; first compound 2.53 µM): 0.594
relative viability ([18]; first compound 8 µM): 0.559
relative viability ([19]; first compound 0.08 µM): 0.688
relative viability ([19]; first compound 0.253 µM): 0.738
relative viability ([19]; first compound 0.8 µM): 0.696
relative viability ([19]; first compound 2.53 µM): 0.695
relative viability ([19]; first compound 8 µM): 0.784
relative viability ([20]; first compound 0.08 µM): 0.64
relative viability ([20]; first compound 0.253 µM): 0.818
relative viability ([20]; first compound 0.8 µM): 0.778
relative viability ([20]; first compound 2.53 µM): 0.829
relative viability ([20]; first compound 8 µM): 0.866
relative viability ([21]; first compound 0.08 µM): 0.805
relative viability ([21]; first compound 0.253 µM): 0.71
relative viability ([21]; first compound 0.8 µM): 0.757
relative viability ([21]; first compound 2.53 µM): 0.62
relative viability ([21]; first compound 8 µM): 0.767
relative viability ([22]; first compound 0.08 µM): 0.527
relative viability ([22]; first compound 0.253 µM): 0.583
relative viability ([22]; first compound 0.8 µM): 0.606
relative viability ([22]; first compound 2.53 µM): 0.479
relative viability ([22]; first compound 8 µM): 0.57
